Laboratory results published in patent publication US6369069B1 (Aventis Pharma Deutschland GmbH, priority 1998, dated 2002).

tested on: Na^+-dependent Cl^−/HCO3^− exchanger (NCBE); test: Inhibition of the Na+-dependent Cl−/HCO3− exchanger (NCBE) in human endothelial cells (pHi recovery, BCECF fluorescence, FLIPR); type: cell-based; details: 10 μM
Procedure, shortened: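 ECV-304 cells loaded with 5 μM BCECF-AM in NH4Cl-containing saline, then placed in Na+/HCO3−-free buffer to acidify. pHi recovery started with Na+/HCO3− buffer (50 μM HOE 642) plus compound at various concentrations. Fluorescence kinetics over 2 min at 35 °C, normalised to 100% and 0% (HCO3−-free) controls.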

| Structure (SMILES) | Residual activity % of the NCBE at 10 μM [%] |
| --- | --- |
| N#CNS(=O)(=O)c1ccccc1-c1ccc(CN(CCO)C(=O)Cc2cccs2)cc1 [Example 26] | 47.6 |
| N#CNS(=O)(=O)c1ccccc1-c1ccc(CN(Cc2ccccn2)C(=O)Cc2csc3ccccc23)cc1 [Example 212] | 60.2 |
| N#CNS(=O)(=O)c1ccccc1-c1ccc(CN(Cc2ccccc2)C(=O)Nc2c(F)cccc2F)cc1 [Example 297] | 80.4 |
| C[C@H](c1ccccc1)N(Cc1ccc(-c2ccccc2S(=O)(=O)NC#N)cc1)C(=O)Cc1cccs1 [Example 133] | 40.9 |
| CC(=O)N(Cc1ccc(Cl)cc1)Cc1ccc(-c2ccccc2S(=O)(=O)NC#N)cc1 [Example 62] | 94.5 |
| N#CNS(=O)(=O)c1ccccc1-c1ccc(CN(Cc2ccccc2Cl)C(=O)Cc2cccs2)cc1 [Example 143] | 35.7 |
| N#CNS(=O)(=O)c1ccccc1-c1ccc(CN(Cc2nc3ccccc3[nH]2)C(=O)CCCCc2cccs2)cc1 [Example 224] | 79.8 |
| CN(C)c1ccc(CN(Cc2ccc(-c3ccccc3S(=O)(=O)NC#N)cc2)C(=O)Cc2ccc(Cl)cc2)cc1 [Example 149] | 77.4 |
| N#CNS(=O)(=O)c1ccccc1-c1ccc(CN(CC2CC2)C(=O)Cc2ccc(Cl)cc2)cc1 [Example 153] | 46.1 |
| COc1ccccc1C(=O)N(Cc1ccc(-c2ccccc2S(=O)(=O)NC#N)cc1)Cc1cccc(Cl)c1Cl [Example 329] | 25.7 |
| N#CNS(=O)(=O)c1ccccc1-c1ccc(CN(CCO)C(=O)CCC2CCCCC2)cc1 [Example 8] | 86.7 |
| N#CNS(=O)(=O)c1ccccc1-c1ccc(CN(Cc2cccs2)C(=O)NCc2ccccc2)cc1 [Example 295] | 8.0 |
| N#CNS(=O)(=O)c1ccccc1-c1ccc(CN(Cc2cccc(Cl)c2Cl)C(=O)CC2CCCC2)cc1 [Example 359] | 37.9 |
| CC(C)(C)CC(=O)N(CCc1cccs1)Cc1ccc(-c2ccccc2S(=O)(=O)NC#N)cc1 [Example 159] | 61.2 |
| COCCC(=O)N(Cc1ccc(-c2ccccc2S(=O)(=O)NC#N)cc1)Cc1ccccc1F [Example 326] | 25.6 |
| CCN(Cc1ccc(-c2ccccc2S(=O)(=O)NC#N)cc1)C(=O)C(=O)c1cccs1 [Example 199] | 54.7 |
| N#CNS(=O)(=O)c1ccccc1-c1ccc(CN(CC2CCCCC2)C(=O)Cc2ccccc2[N+](=O)[O-])cc1 [Example 257] | 54.6 |
| C[C@H](c1ccccc1)N(Cc1ccc(-c2ccccc2S(=O)(=O)NC#N)cc1)C(=O)C(c1ccccc1)c1ccccc1 [Example 118] | 95.3 |
| COc1ccc(CN(Cc2ccc(-c3ccccc3S(=O)(=O)NC#N)cc2)C(C)=O)cc1 [Example 69] | 95.4 |
| N#CNS(=O)(=O)c1ccccc1-c1ccc(CN(CC2CCCO2)C(=O)CC2CCCCC2)cc1 (stereo not shown) [Example 358] | 55.5 |
| N#CNS(=O)(=O)c1ccccc1-c1ccc(CN(Cc2ccc(Cl)cc2Cl)C(=O)Cc2ccccc2Br)cc1 [Example 276] | 36.8 |

| Structure (SMILES) | Residual activity % of the NCBE at 10 μM [%] |
| --- | --- |
| N#CNS(=O)(=O)c1ccccc1-c1ccc(CN(Cc2ccccn2)C(=O)Cc2ccsc2)cc1 [Example 228] | 94.8 |
| N#CNS(=O)(=O)c1ccccc1-c1ccc(CN(Cc2cccc(Cl)c2)C(=O)Cc2ccc(O)cc2)cc1 [Example 285] | 58.8 |
| N#CNS(=O)(=O)c1ccccc1-c1ccc(CN(Cc2cccs2)C(=O)Cc2cccs2)cc1 [Example 250] | 41.1 |
| N#CNS(=O)(=O)c1ccccc1-c1ccc(CN(Cc2ccccc2F)C(=O)Cc2cccs2)cc1 [Example 316] | 14.4 |
| N#CNS(=O)(=O)c1ccccc1-c1ccc(CN(C(=O)C(=O)c2cccs2)C2CC2)cc1 [Example 197] | 79.9 |
| C=CCOC(=O)N(Cc1ccc(OC)cc1)Cc1ccc(-c2ccccc2S(=O)(=O)NC#N)cc1 [Example 45] | 80.1 |
| COc1ccccc1C(=O)N(Cc1ccc(-c2ccccc2S(=O)(=O)NC#N)cc1)Cc1cccc(C)c1 [Example 331] | 37.6 |
| CC(=O)N(Cc1ccc(-c2ccccc2S(=O)(=O)NC#N)cc1)Cc1ccccc1Cl [Example 181] | 80.8 |
| N#CNS(=O)(=O)c1ccccc1-c1ccc(CN(C(=O)CCOc2ccccc2)C2CCCc3ccccc32)cc1 (stereo not shown) [Example 345] | 39.8 |
| N#CNS(=O)(=O)c1ccccc1-c1ccc(CN(Cc2ccc3ccccc3c2)C(=O)CCOc2ccccc2)cc1 [Example 340] | 37.2 |
| N#CNS(=O)(=O)c1ccccc1-c1ccc(CN(CCCc2ccccc2)C(=O)Cc2ccsc2)cc1 [Example 226] | 34.8 |
| CN(Cc1ccc(-c2ccccc2S(=O)(=O)NC#N)cc1)C(=O)Cc1cccs1 [Example 239] | 56.3 |
| N#CNS(=O)(=O)c1ccccc1-c1ccc(CN(Cc2ccccn2)C(=O)CCCc2cccs2)cc1 [Example 188] | 52.3 |
| N#CNS(=O)(=O)c1ccccc1-c1ccc(CN(Cc2ccccc2Cl)C(=O)c2cccs2)cc1 [Example 81] | 36.0 |
| CC(C)=CCCC(C)=CCN(Cc1ccc(-c2ccccc2S(=O)(=O)NC#N)cc1)C(=O)CCOc1ccccc1 [Example 343] | 48.1 |
| N#CNS(=O)(=O)c1ccccc1-c1ccc(CN(Cc2ccccc2)C(=O)NCc2ccccc2)cc1 [Example 299] | 48.6 |
| N#CNS(=O)(=O)c1ccccc1-c1ccc(CN(CC2=Nc3ccccc3CN2)C(=O)Cc2cccs2)cc1 [Example 238] | 54.7 |
| CC(C)CN(Cc1ccc(-c2ccccc2S(=O)(=O)NC#N)cc1)C(=O)Cc1ccccc1 [Example 122] | 90.6 |
| N#CNS(=O)(=O)c1ccccc1-c1ccc(CN(Cc2cccc(Cl)c2)C(=O)NCc2ccccc2)cc1 [Example 307] | 55.8 |
| C[C@H](c1ccccc1)N(Cc1ccc(-c2ccccc2S(=O)(=O)NC#N)cc1)C(=O)c1cc2ccccc2s1 [Example 78] | 88.5 |

same assay, conditions: 10 μM compound; human endothelial cells (ECV-304); related to 100% and 0% pHi recovery controls

| Structure (SMILES) | Residual activity of the NCBE at 10 μM [%] |
| --- | --- |
| CS(=O)(=O)c1cc(-c2ccccc2S(=O)(=O)NC#N)ccc1CN(Cc1ccccc1)C(=O)Cc1cccs1 [Example 555, 4′-{[Benzyl-(2-thiophen-2-ylacetyl)amino]methyl}-3′-methylsulfonyl-biphenyl-2-sulfonylcyanamide] | 31 |

same assay, conditions: compound at 10 μM; R(3) to R(7) hydrogen series

| Structure (SMILES) | Residual activity % of the NCBE at 10 μM [%] |
| --- | --- |
| N#CNS(=O)(=O)c1ccccc1-c1ccc(CN(CC2CCCO2)C(=O)CC2CCCC2)cc1 (stereo not shown) [Example 368] | 51.0 |
| Cc1ccc(C(C)C(=O)N(Cc2ccccc2)Cc2ccc(-c3ccccc3S(=O)(=O)NC#N)cc2)s1 (stereo not shown) [Example 481] | 62.6 |

same assay, conditions: compound at 10 μM; sub-table with R7 substituent

| Structure (SMILES) | Residual activity % of the NCBE at 10 μM [%] |
| --- | --- |
| Cc1ccc(-c2ccc(CN(Cc3cccc4ccccc34)C(=O)C(C)c3cccs3)cc2)c(S(=O)(=O)NC#N)c1 (stereo not shown) [Example 522] | 85.6 |
| Cc1ccc(-c2ccc(CN(Cc3ccc4ccccc4c3)C(=O)Cc3cccs3)cc2)c(S(=O)(=O)NC#N)c1 [Example 515] | 68.9 |
